# Reference: patent US11958868B2, “Methods of using metal complexes to promote wound healing” (University of Macau, priority 2022, dated 2024)
# Where two headings read alike, the source gives them in different places.
# Tests used:
# [1] = tested on: HIF-1α, VEGF, GLUT1 and EPO levels in HEK293 cells; test: Western blotting of HIF-1α and HIF-1α target gene products in HEK293 cells; type: cell-based, Human; conditions: 2 h
# Protocol: (§1) FIG. 3 depicts the effect of complex 1a on HIF-1α target gene products in cellulo. (A) Effect of complex 1a on specific proteins (GLUT1, VEGF, and EPO) mediated by HIF-1α in HEK293 cells. HEK293 cells were treated with 1a for 2 h. Cell lysis were collected and analyzed by the Western blotting. (B) Complex 1a has no effect on HIF-1α accumulation in a VHL null cancer cell line. A498 (VHL-null), or HEK293 cells were treated with 1% DMSO, 1a (3 μM), VH298 (100 μM), and FG-4592 (100 μM) for 2 h before lysis. (C) Effect of complex 1a on EPO, GLUT1, and VEGF levels in HEK293 cells with or without HIF-1α knockdown. Left: The expression levels of EPO, GLUT1, and VEGF in HEK293 cells with or without knockdown HIF-1α in the presence or absence of 1a. Right: Densitometry analysis of EPO, GLUT1, and VEGF levels on the Western blot. HIF-1α siRNA [sense, 5′-[…]-3′ (SEQ ID NO:1), antisense, 5′-[…]-3′ (SEQ ID NO:2)]. Negative control (NC) siRNA [sense, 5′-[…]-3′ (SEQ ID NO:3), antisense, 5′-[…]-3′ (SEQ ID NO:4)]. Data are expressed as means±SD (n=3 independent experiments), P values were calculated using a two-sided t-test. #P<0.05, P<0.01 HIF-1α siRNA vs. NC siRNA, *P<0.05, **P<0.01 1a vs. vehicle/DMSO group, respectively.
# Therefore, the effect of complex 1a on HIF-1α and HIF-1α target protein levels in cellulo was investigated. […]
# [2] = tested on: full-thickness skin wounds in streptozotocin-induced diabetic mice (STZ); test: Skin wound model in STZ diabetic mice, intraperitoneal; type: in vivo; conditions: 1.25 mg/kg i.p. every other day
# Source text: (§2) The mice were maintained for 3 days. […] All experiments complied with all relevant ethical regulations.
# (§3) Mice were anesthetized by inhalation of 3% isoflurane.
# [3] = molecular target: T1, His-tagged recombinant VBC protein complex (Homo sapiens, UniProt P40337); test: Biolayer interferometry (BLI); type: binding; conditions: for Kd: 1:1 interaction, 0.78-12.5 μM
# T1 construct: made in house
# Protocol: HEK293 cells were treated with vehicle DMSO (1% for 2 h), 1a (0.3, 1, 3, 6 and 9 μM for 2 h), VH298 (100 μM for 2 h), MG132 (20 μM for 3 h), or FG-4592 (100 μM for 2 h) before lysis. Cell lysates were collected and incubated with VHL antibody overnight at 4° C. The proteins were immunoprecipitated using agarose beads. The levels of hydroxy-HIF-1α co-precipitated with VHL were detected using a hydroxy-HIF-1α antibody, and then visualized using ECL Western Blotting Detection Reagent (GE Healthcare). (B) Cellular thermal shift assays to monitor cellular target engagement of VHL and HIF-1α. HEK293 cell lysates were treated with 1a (3 μM) at room temperature for 30 min and then heated at different temperature ranging from 48° C. to 68° C. for 5 min. The protein samples were collected and detected by Western blotting using either VHL or PHD2 antibodies. (C) Fluorescence-based protein thermal shift assay of VBC in the presence or absence of VH298 (100 μM) and complex 1a (100 μM). (D) ITC titration of complex 1a (300 μM) into recombinant VHL protein (30 μM). ITC experiments were carried in a MicroCal PEAQ-ITC Isothermal Titration Calorimeter (Malvern Panalytical). […] (F) Biolayer interferometry (BLI) kinetic analysis of the interaction between complex 1a and VBC. VBC was surface-immobilized to Ni-NTA biosensors. […] Data are expressed as means±SD (n=3 independent experiments for figures a and b, samples for figures c and e), P values were calculated using a two-sided t-test. *P<0.05, **P<0.01 vs. DMSO group.
# After incubating HEK293 cell lysates with complex 1a followed by heating to set temperatures, VHL and PHD2 levels in the soluble fraction were quantitated by Western blotting.
# [4] = tested on: oxygen depletion, PHD inhibition, proteasomal inhibition; test: Alternative mechanisms of HIF activation (oxygen depletion, PHD inhibition, proteasomal inhibition)
# [5] = Body weight, blood glucose and toxicity in treated mice; type: in vivo
# Source text: as §2
# [6] = tested on: full-thickness skin wounds in WT/NC mice; test: Skin wound model in normal (WT/NC) mice; type: in vivo
# Source text: as §2, §3
# VHL [7] = molecular target: T2, VHL (Homo sapiens, UniProt P40337); test: Binding affinity to VHL compared with VH298; conditions: complex 1a vs VH298
# VHL [8] = molecular target: T2, VHL; test: Cellular thermal shift assay (CETSA) in HEK293 cell lysates, VHL; type: binding; design: monitor the target engagement of 1a in HEK293 cell lysates; endogenous in cells; host or cells: HEK293 cell lysate; conditions: 3 μM, 30 min
# Protocol: HEK293 cells were treated with vehicle DMSO (1% for 2 h), 1a (0.3, 1, 3, 6 and 9 μM for 2 h), VH298 (100 μM for 2 h), MG132 (20 μM for 3 h), or FG-4592 (100 μM for 2 h) before lysis. Cell lysates were collected and incubated with VHL antibody overnight at 4° C. The proteins were immunoprecipitated using agarose beads. The levels of hydroxy-HIF-1α co-precipitated with VHL were detected using a hydroxy-HIF-1α antibody, and then visualized using ECL Western Blotting Detection Reagent (GE Healthcare). (B) Cellular thermal shift assays to monitor cellular target engagement of VHL and HIF-1α. HEK293 cell lysates were treated with 1a (3 μM) at room temperature for 30 min and then heated at different temperature ranging from 48° C. to 68° C. for 5 min. The protein samples were collected and detected by Western blotting using either VHL or PHD2 antibodies. (C) Fluorescence-based protein thermal shift assay of VBC in the presence or absence of VH298 (100 μM) and complex 1a (100 μM). […] Data are expressed as means±SD (n=3 independent experiments for figures a and b, samples for figures c and e), P values were calculated using a two-sided t-test. *P<0.05, **P<0.01 vs. DMSO group.
# After incubating HEK293 cell lysates with complex 1a followed by heating to set temperatures, VHL and PHD2 levels in the soluble fraction were quantitated by Western blotting. […]
# [9] = tested on: HIF-1α levels in A498 (VHL-null) cells; test: HIF-1α accumulation in VHL-null A498 cells; type: cell-based; conditions: 1a 3 μM, VH298 100 μM, 2 h
# Protocol: as §1, with “respectively. […]” for “respectively.”
# T1 sequence (P40337 whole entry): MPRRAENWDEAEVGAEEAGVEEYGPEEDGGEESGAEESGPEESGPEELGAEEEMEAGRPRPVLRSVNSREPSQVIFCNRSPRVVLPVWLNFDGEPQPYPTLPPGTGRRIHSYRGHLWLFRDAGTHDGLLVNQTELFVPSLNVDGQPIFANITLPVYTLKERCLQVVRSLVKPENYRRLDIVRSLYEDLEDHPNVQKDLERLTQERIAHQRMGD
# T1 sequence (Q15370 whole entry partner): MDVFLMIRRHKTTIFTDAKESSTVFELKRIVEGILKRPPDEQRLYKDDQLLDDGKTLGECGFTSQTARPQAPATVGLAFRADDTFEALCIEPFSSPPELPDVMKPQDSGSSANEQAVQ
# T1 sequence (Q15369 whole entry partner): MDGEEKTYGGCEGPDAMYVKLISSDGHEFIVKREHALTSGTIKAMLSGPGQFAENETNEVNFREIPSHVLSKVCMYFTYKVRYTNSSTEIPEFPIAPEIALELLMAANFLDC
# T2 sequence (P40337 whole entry): as the sequence (P40337 whole entry) above
# T2 sequence (Q15370 whole entry partner): as the sequence (Q15370 whole entry partner) above
# T2 sequence (Q15369 whole entry partner): as the sequence (Q15369 whole entry partner) above
smiles,measurement,setting,value
COc1cc[n+]2c3c1ccc1c(OC)cc[n+](c13)[Ir-3]213([c]2ccccc2-c2cccc[n+]21)[c]1ccccc1-c1cccc[n+]13.F[P-](F)(F)(F)(F)F [1a],"Expression levels of HIF-1α, VEGF, GLUT1 and EPO",[1],increased in a dose-dependent manner
same,"Rate of wound closure, STZ mice, 4 days",[2]; 4 days post-injury,50%
same,"Rate of wound closure, STZ mice, 8 days",[2]; 8 days post-injury,76%
same,koff (BLI),[3],0.0352 s⁻¹
same,kon (BLI),[3],522 M⁻¹ s⁻¹
same,Kd,"[3]; read-out: Kd (BLI, kinetic fit)",6.74 ± 0.19 µM
same,Kd,"[3]; read-out: Kd (BLI, steady state fit)",5.8 ± 0.64 µM
same,"Activation of HIF signaling via oxygen depletion, PHD inhibition and/or proteasomal inhibition",[4],"unlikely to activate HIF signaling via oxygen depletion, PHD inhibition, and/or proteasomal inhibition"
same,Blood glucose levels or body weight,"[5]; HFD/STZ and STZ models, diabetic and NC mice, 1.25 mg/kg i.p.",neither diabetic nor normal control mice (NC) showed obvious changes in blood glucose levels or body weight
same,Body weight after local application,"[5]; WT and db/db mice, 0.25 mg/mL topical, 8 days",did not affect body weight
same,Toxicity in animal models of diabetes,"[5]; db/db, HFD/STZ and STZ",without significant toxicity
same,"Rate of wound closure, NC mice, 4 days","[6]; NC, 1.25 mg/kg i.p., 4 days",~65%
same,"Rate of wound closure, WT mice, 4 days","[6]; WT, 0.25 mg/mL topical, 4 days",about 64%
same,"Wound closure, WT/NC mice, 8 days","[6]; WT/NC, 8 days",almost complete wound closure
same,"Binding affinity, lower than that of VH298",VHL [7],around 100 fold
same,Shift in the VHL melting curve (CETSA),VHL [8],about 6 °C
same,HIF-1α levels in A498 cells,[9],no increase in HIF-1α levels
